# Assay results published in article PMC4844702, “Selective inhibition of the kinase DYRK1A by targeting its folding process” (Nature Communications, 2016).
# Tests used:
# Experiment in all cases: Kinase panel (Carna)
# Format in all cases: biochemical
# ABL = molecular target: T1, ABL (Homo sapiens, UniProt P00519)
# T1 construct: purchased Carna Biosciences
# Source text: (§1) Detailed information on the assay conditions is available on the website of Carna Biosciences (http://www.carnabio.com).
# BRK = molecular target: T2, BRK (Homo sapiens, UniProt Q13882)
# T2 construct: purchased Carna Biosciences
# Source text: as §1
# EGFR = molecular target: T3, EGFR (Homo sapiens, UniProt P00533)
# T3 construct: purchased Carna Biosciences
# FRK = molecular target: T4, FRK (Homo sapiens, UniProt P42685)
# T4 construct: purchased Carna Biosciences
# Source text: as §1
# HER4 = molecular target: T5, HER4 (Homo sapiens, UniProt Q15303)
# T5 construct: purchased Carna Biosciences
# Source text: as §1
# IGF1R = molecular target: T6, IGF1R (Homo sapiens, UniProt P08069)
# T6 construct: purchased Carna Biosciences
# Source text: as §1
# KIT = molecular target: T7, KIT (Homo sapiens, UniProt P10721)
# T7 construct: purchased Carna Biosciences
# Source text: as §1
# LCK = molecular target: T8, LCK (Homo sapiens, UniProt P06239)
# T8 construct: purchased Carna Biosciences
# Source text: as §1
# CaMK1α = molecular target: T9, CaMK1α (Homo sapiens, UniProt Q14012)
# T9 construct: purchased Carna Biosciences
# Source text: as §1
# MET = molecular target: T10, MET (Homo sapiens, UniProt P08581)
# T10 construct: purchased Carna Biosciences
# Source text: as §1
# RET = molecular target: T11, RET (Homo sapiens, UniProt P07949)
# T11 construct: purchased Carna Biosciences
# Source text: as §1
# SYK = molecular target: T12, SYK (Homo sapiens, UniProt P43405)
# T12 construct: purchased Carna Biosciences
# Source text: as §1
# TRKB = molecular target: T13, TRKB (Homo sapiens, UniProt Q16620)
# T13 construct: purchased Carna Biosciences
# Source text: as §1
# TYK2 = molecular target: T14, TYK2 (Homo sapiens, UniProt P29597)
# T14 construct: purchased Carna Biosciences
# Source text: as §1
# AurC = molecular target: T15, AurC (Homo sapiens, UniProt Q9UQB9)
# T15 construct: purchased Carna Biosciences
# Source text: as §1
# CaMK1δ = molecular target: T16, CaMK1δ (Homo sapiens, UniProt Q8IU85)
# T16 construct: purchased Carna Biosciences
# T16 sequence (Q8IU85 whole entry): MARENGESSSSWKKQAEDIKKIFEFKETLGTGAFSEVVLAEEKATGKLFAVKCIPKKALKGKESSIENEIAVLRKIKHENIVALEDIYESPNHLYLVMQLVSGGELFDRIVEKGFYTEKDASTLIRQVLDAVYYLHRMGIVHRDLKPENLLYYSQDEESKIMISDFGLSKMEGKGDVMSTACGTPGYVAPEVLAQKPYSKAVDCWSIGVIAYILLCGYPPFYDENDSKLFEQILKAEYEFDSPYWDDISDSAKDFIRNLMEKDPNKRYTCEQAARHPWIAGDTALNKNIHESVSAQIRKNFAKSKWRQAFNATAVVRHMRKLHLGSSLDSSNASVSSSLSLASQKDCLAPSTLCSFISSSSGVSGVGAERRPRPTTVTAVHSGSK
# Source text: as §1
# CaMK2β = molecular target: T17, CaMK2β (Homo sapiens, UniProt Q13554)
# T17 construct: purchased Carna Biosciences
# CDK2/CycA2 = molecular target: T18, CDK2/CycA2 (Homo sapiens, UniProt P24941)
# T18 construct: purchased Carna Biosciences
# Source text: as §1
# CDK2/CycE1 = molecular target: T19, CDK2/CycE1 (Homo sapiens, UniProt P24941)
# T19 construct: purchased Carna Biosciences
# Source text: as §1
# CDK3/CycE1 = molecular target: T20, CDK3/CycE1 (Homo sapiens, UniProt Q00526)
# T20 construct: purchased Carna Biosciences
# Source text: as §1
# CK2α1/β = molecular target: T21, CK2α1/β (Homo sapiens, UniProt P68400)
# T21 construct: purchased Carna Biosciences
# T21 sequence (P68400 whole entry): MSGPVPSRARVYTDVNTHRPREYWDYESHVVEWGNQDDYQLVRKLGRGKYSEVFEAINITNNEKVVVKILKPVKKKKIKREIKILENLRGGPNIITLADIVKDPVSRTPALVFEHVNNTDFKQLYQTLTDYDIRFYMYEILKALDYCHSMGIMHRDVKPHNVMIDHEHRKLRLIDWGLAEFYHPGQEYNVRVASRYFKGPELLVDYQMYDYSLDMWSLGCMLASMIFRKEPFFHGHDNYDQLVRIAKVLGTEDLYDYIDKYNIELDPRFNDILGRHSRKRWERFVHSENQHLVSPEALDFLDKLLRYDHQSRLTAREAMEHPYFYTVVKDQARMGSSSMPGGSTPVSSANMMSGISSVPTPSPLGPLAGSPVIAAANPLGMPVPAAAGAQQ
# T21 sequence (P67870 whole entry partner): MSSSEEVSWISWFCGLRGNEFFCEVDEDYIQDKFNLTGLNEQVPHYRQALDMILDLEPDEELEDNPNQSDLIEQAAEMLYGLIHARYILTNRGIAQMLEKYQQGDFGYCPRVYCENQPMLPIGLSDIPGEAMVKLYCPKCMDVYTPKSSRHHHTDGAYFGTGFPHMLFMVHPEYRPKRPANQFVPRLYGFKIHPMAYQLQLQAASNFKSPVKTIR
# Erk5 = molecular target: T22, Erk5 (Homo sapiens, UniProt Q13164)
# T22 construct: purchased Carna Biosciences
# T22 sequence (Q13164 whole entry): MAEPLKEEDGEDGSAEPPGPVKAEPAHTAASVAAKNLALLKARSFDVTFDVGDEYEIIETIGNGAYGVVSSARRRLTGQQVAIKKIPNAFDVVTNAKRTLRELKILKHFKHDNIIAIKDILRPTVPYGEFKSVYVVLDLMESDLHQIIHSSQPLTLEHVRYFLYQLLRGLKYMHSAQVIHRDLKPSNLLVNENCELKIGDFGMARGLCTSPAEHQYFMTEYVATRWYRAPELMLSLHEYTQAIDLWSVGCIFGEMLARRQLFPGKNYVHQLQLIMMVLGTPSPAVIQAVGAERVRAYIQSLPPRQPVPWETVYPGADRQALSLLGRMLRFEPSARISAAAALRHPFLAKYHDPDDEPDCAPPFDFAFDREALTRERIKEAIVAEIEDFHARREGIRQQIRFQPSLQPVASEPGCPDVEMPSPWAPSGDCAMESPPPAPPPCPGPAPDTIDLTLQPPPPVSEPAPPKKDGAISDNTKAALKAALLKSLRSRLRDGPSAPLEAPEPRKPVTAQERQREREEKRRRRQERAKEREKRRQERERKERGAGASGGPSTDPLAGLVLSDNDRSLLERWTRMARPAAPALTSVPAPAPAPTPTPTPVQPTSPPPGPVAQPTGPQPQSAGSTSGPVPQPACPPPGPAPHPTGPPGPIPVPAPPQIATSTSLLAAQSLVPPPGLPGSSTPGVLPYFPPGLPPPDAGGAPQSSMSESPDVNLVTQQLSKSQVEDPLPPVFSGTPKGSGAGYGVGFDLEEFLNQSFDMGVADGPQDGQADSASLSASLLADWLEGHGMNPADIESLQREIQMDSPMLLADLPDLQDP
# HGK = molecular target: T23, HGK (Homo sapiens, UniProt O95819)
# T23 construct: purchased Carna Biosciences
# T23 sequence (O95819 whole entry): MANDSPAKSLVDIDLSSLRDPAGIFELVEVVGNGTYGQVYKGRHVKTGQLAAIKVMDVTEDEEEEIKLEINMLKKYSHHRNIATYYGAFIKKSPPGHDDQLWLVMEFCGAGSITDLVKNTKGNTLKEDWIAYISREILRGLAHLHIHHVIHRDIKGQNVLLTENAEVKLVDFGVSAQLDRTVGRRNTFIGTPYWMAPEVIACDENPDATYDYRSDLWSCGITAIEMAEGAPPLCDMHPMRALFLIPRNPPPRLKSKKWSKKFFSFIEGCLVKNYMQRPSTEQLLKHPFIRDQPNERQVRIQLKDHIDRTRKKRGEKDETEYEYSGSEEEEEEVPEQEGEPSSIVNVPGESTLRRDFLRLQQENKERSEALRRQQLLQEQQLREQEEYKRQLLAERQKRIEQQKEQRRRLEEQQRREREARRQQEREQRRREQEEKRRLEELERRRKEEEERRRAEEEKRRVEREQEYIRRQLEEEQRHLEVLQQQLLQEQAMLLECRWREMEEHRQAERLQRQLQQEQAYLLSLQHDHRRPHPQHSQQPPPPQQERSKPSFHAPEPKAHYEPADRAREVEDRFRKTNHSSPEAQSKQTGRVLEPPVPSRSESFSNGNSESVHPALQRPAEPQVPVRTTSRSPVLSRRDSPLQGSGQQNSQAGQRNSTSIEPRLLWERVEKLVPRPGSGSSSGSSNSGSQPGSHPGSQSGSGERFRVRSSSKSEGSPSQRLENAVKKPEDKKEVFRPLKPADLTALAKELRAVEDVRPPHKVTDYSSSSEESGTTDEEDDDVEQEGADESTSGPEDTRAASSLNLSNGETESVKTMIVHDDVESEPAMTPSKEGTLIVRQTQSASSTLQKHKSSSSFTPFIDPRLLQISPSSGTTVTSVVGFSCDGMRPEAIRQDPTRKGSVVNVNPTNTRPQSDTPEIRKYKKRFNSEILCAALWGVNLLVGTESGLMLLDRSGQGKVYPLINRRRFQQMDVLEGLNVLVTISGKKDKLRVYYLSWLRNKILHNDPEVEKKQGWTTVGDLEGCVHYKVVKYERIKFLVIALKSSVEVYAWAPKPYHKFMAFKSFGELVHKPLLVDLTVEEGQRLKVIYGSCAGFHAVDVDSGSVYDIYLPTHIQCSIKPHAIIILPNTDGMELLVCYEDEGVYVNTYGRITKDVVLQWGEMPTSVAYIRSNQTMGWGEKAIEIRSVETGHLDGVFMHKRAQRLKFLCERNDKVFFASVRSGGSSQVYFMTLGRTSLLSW
# IKKα = molecular target: T24, IKKα (Homo sapiens, UniProt O15111)
# T24 construct: purchased Carna Biosciences
# Source text: as §1
# IKKβ = molecular target: T25, IKKβ (Homo sapiens, UniProt O14920)
# T25 construct: purchased Carna Biosciences
# Source text: as §1
# MAP2K2_Cascade = molecular target: T26, MAP2K2_Cascade (Homo sapiens, UniProt P36507)
# T26 construct: purchased Carna Biosciences
# NuaK1 = molecular target: T27, NuaK1 (Homo sapiens, UniProt O60285)
# T27 construct: purchased Carna Biosciences
# MAPKAPK5 = molecular target: T28, MAPKAPK5 (Homo sapiens, UniProt Q8IW41)
# T28 construct: purchased Carna Biosciences
# MARK2 = molecular target: T29, MARK2 (Homo sapiens, UniProt Q7KZI7)
# T29 construct: purchased Carna Biosciences
# Source text: as §1
# MARK4 = molecular target: T30, MARK4 (Homo sapiens, UniProt Q96L34); conditions: 10 µM FINDY
# T30 construct: purchased Carna Biosciences
# Source text: as §1
# MLK3_Cascade = molecular target: T31, MLK3_Cascade (Homo sapiens, UniProt Q16584)
# T31 construct: purchased Carna Biosciences
# Source text: as §1
# NEK4 = molecular target: T32, NEK4 (Homo sapiens, UniProt P51957)
# T32 construct: purchased Carna Biosciences
# PAK2 = molecular target: T33, PAK2 (Homo sapiens, UniProt Q13177)
# T33 construct: purchased Carna Biosciences
# Source text: as §1
# PAK3 = molecular target: T34, PAK3 (Homo sapiens, UniProt O75914)
# T34 construct: purchased Carna Biosciences
# Source text: as §1
# PDK1 = molecular target: T35, PDK1 (Homo sapiens, UniProt O15530)
# T35 construct: purchased Carna Biosciences
# Source text: as §1
# PKCδ = molecular target: T36, PKCδ (Homo sapiens, UniProt Q05655)
# T36 construct: purchased Carna Biosciences
# T36 sequence (Q05655 whole entry): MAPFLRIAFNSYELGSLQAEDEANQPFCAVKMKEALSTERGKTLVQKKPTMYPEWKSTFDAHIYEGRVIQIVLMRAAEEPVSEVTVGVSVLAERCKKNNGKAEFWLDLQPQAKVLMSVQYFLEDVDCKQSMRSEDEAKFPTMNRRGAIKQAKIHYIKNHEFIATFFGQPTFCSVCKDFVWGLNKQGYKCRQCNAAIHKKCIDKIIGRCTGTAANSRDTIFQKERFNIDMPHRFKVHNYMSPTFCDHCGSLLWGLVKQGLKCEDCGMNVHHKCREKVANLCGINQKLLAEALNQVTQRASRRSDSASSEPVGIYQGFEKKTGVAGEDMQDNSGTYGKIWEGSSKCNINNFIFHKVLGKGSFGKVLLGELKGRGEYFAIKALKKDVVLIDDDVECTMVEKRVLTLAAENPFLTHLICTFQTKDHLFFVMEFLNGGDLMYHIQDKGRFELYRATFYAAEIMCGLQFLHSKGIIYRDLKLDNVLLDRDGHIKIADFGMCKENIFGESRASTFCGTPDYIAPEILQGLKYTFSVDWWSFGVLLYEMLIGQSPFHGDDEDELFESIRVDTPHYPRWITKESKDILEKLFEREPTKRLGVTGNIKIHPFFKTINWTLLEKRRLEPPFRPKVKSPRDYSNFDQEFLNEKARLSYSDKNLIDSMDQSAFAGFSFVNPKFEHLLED
# Source text: as §1
# PKCι = molecular target: T37, PKCι (Homo sapiens, UniProt P41743)
# T37 construct: purchased Carna Biosciences
# T37 sequence (P41743 whole entry): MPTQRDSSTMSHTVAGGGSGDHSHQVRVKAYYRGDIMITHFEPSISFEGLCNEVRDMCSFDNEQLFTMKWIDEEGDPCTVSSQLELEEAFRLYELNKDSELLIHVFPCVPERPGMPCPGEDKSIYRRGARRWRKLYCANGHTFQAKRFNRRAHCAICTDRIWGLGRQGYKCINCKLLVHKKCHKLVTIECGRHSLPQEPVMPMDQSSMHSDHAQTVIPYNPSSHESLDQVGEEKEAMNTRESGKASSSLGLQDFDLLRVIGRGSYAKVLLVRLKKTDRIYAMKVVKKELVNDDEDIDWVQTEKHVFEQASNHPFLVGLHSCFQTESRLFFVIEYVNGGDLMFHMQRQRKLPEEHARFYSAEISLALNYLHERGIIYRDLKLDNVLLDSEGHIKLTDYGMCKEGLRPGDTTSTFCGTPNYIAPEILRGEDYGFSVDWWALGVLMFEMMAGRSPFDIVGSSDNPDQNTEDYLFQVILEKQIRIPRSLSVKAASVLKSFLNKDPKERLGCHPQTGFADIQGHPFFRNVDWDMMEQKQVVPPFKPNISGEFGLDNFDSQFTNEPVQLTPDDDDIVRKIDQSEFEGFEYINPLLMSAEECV
# Source text: as §1
# PKD2 = molecular target: T38, PKD2 (Homo sapiens, UniProt Q9BZL6)
# T38 construct: purchased Carna Biosciences
# Source text: as §1
# PLK3 = molecular target: T39, PLK3 (Homo sapiens, UniProt Q9H4B4); conditions: 10 µM FINDY
# T39 construct: purchased Carna Biosciences
# PRKX = molecular target: T40, PRKX (Homo sapiens, UniProt P51817)
# T40 construct: purchased Carna Biosciences
# QIK = molecular target: T41, QIK (Homo sapiens, UniProt Q9H0K1)
# T41 construct: purchased Carna Biosciences
# PIK3CA/PIK3R1 = molecular target: T42, PIK3CA/PIK3R1 (Homo sapiens, UniProt P42336)
# T42 construct: purchased Carna Biosciences
# Source text: as §1
# SPHK1 = molecular target: T43, SPHK1 (Homo sapiens, UniProt Q9NYA1)
# T43 construct: purchased Carna Biosciences
# Source text: as §1
# SPHK2 = molecular target: T44, SPHK2 (Homo sapiens, UniProt Q9NRA0)
# T44 construct: purchased Carna Biosciences
# T44 sequence (Q9NRA0 whole entry): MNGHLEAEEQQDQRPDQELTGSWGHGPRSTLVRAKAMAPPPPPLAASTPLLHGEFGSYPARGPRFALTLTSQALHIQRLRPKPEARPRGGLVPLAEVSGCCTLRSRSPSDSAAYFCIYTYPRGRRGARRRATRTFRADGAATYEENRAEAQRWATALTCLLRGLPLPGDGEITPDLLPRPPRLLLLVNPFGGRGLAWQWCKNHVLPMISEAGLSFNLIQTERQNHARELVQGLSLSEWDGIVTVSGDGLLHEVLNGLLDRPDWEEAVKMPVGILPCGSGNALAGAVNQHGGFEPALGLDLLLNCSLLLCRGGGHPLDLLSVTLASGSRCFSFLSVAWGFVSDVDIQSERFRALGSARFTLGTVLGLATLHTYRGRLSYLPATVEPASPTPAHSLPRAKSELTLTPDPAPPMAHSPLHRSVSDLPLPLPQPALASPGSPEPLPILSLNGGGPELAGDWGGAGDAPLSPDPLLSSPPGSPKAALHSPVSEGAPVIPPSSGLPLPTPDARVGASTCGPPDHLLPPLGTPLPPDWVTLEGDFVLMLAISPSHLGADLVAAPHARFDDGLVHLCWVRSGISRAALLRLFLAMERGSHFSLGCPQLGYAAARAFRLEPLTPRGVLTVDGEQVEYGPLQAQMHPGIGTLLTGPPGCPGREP
# Source text: as §1
smiles,measurement,setting,value
COc1ccc(/C=C2\SC(=S)NC2=O)cc1C#C[Si](C)(C)C [FINDY],inhibition at 10 µM,ABL,13%
same,inhibition at 10 µM,BRK,3%
same,inhibition at 10 µM,EGFR,-5.1%
same,inhibition at 10 µM,FRK,8.4%
same,inhibition at 10 µM,HER4,-13.4%
same,inhibition at 10 µM,IGF1R,2.4%
same,inhibition at 10 µM,KIT,2.9%
same,inhibition at 10 µM,LCK,7.2%
same,inhibition at 10 µM,CaMK1α,-4.1%
same,inhibition at 10 µM,MET,12.4%
same,inhibition at 10 µM,RET,12.6%
same,inhibition at 10 µM,SYK,72.8%
same,inhibition at 10 µM,TRKB,4.9%
same,inhibition at 10 µM,TYK2,-5.4%
same,inhibition at 10 µM,AurC,40.1%
same,inhibition at 10 µM,CaMK1δ,7.2%
same,inhibition at 10 µM,CaMK2β,-3.3%
same,inhibition at 10 µM,CDK2/CycA2,31.3%
same,inhibition at 10 µM,CDK2/CycE1,64.9%
same,inhibition at 10 µM,CDK3/CycE1,20.7%
same,inhibition at 10 µM,CK2α1/β,45.4%
same,inhibition at 10 µM,Erk5,-4%
same,inhibition at 10 µM,HGK,13.4%
same,inhibition at 10 µM,IKKα,4.9%
same,inhibition at 10 µM,IKKβ,-3.5%
same,inhibition at 10 µM,MAP2K2_Cascade,38.8%
same,inhibition at 10 µM,NuaK1,-26.4%
same,inhibition at 10 µM,MAPKAPK5,5.2%
same,inhibition at 10 µM,MARK2,60.8%
same,inhibition at 10 µM,MARK4,79.8%
same,inhibition at 10 µM,MLK3_Cascade,40.5%
same,inhibition at 10 µM,NEK4,6.8%
same,inhibition at 10 µM,PAK2,-2.5%
same,inhibition at 10 µM,PAK3,-14.7%
same,inhibition at 10 µM,PDK1,-2.6%
same,inhibition at 10 µM,PKCδ,-1.3%
same,inhibition at 10 µM,PKCι,-4.3%
same,inhibition at 10 µM,PKD2,29.9%
same,inhibition at 10 µM,PLK3,76.3%
same,inhibition at 10 µM,PRKX,3%
same,inhibition at 10 µM,QIK,-7.7%
same,inhibition at 10 µM,PIK3CA/PIK3R1,12.8%
same,inhibition at 10 µM,SPHK1,51.2%
same,inhibition at 10 µM,SPHK2,4.9%
